Consider five molecules from patent US20150031598A1, “NEMO BINDING DOMAIN FUSION PROTEINS” (Encode Bio, Inc., priority 2012, published 2015).

The subject of data set [1] is NF-κB signaling. Put plainly: TNFα-mediated SEAP expression in pNiFty-SEAP transfected HEK293 cells (NF-κB reporter). The note with it: for block of TNFα-mediated SEAP expression (in words): pNiFty-SEAP transfected HEK293 cells. The data set is classed as cell-based. From the text: HEK293 cells were transfected with the plasmid pNiFty-SEAP which encodes for a secreted alkaline phosphatase (SEAP) whose expression is under control of an ELAM-1 composite promoter containing five NF-κB sites. Treatment of cells with TNFα causes activation of the IkB kinase complex and, in turn, NF-κB, resulting in SEAP expression. We verified that pNiFty-SEAP transfected HEK293 cells treated with the NBD Peptide (FIG. 2; FIG. 3, Panel B) blocked the expression of TNFα-mediated SEAP expression in a concentration-dependent manner with an IC50 of ˜60 μM. […] Treatment of cells with circularized NBD-MCoTI-II generated in bacteria (data not shown) or linear NBD-MCoTI-II generated by automated synthesis (FIG. 2; FIG. 3 Panel A) blocked TNFα-mediated SEAP expression, but not WT MCoTI-II (FIG. 2).

The subject of data set [2] is HEK293 cells. In kind it is cell-based. As to conditions: concentrations up to 1 μM.
The test system of data set [3] is carrageenan-induced paw edema. Put plainly: Mouse carrageenan paw edema (CPE) model. In kind it is in vivo. As to conditions: for reduction of swelling: 12 hours post-carrageenan. The method, then: Anti-inflammatory activity of linear NBD-MCoTI-II was tested at two doses (5 and 25 μg/kg) in the mouse CPE model. Mice were administered (i.p.) either NBD-MCoTI-II, dexamethasone (10 mg/kg) or saline one hour prior to inducing edema by carrageenan injection into the subplantar region of the left hind foot. Swelling was then measured by water displacement method at 2, 4, 6 and 12 hours post-carrageenan injection. […] At 12 hours, 5 and 25 μg/kg NBD MCoTI-II reduced swelling 30 and 50%, respectively (FIG. 5). […] (FIG. 5).

In data set [4] the test system is collagen-induced arthritis. Put plainly: Mouse collagen-induced arthritis (CIA) model, therapeutic mode. The data set is classed as in vivo, male DBA/1J mice. As to the method: We next tested the efficacy of linear NBD-MCoTI-II in the mouse CIA model in therapeutic mode, a standard model for evaluating anti-arthritic activity. Mice were injected with collagen type II. CIA was induced in male DBA/1J mice by tail injection of Type II collagen (100 μg) mixed with complete Freund's adjuvant. On Day 21, a booster injection (i.p.) of collagen (100 μg)/incomplete Freund's adjuvant was administered. The severity of arthritis (arthritic index (AI)) was scored in each paw as follows: 0-no evidence of erythema and swelling, 1-erythema and mild swelling confined to the mid-foot (tarsals) or ankle joint, 2-erythema and mild swelling extending from the ankle to the mid-foot, 3-erythema and moderate swelling extending from the ankle to the metatarsal joints and 4-erythema and severe swelling encompass the ankle, foot and digits. AI scores were measured in each paw and summed (maximum score of 16 per mouse). After the AI score reached an average of 3.1 on Day 27, mice were separated into three treatment groups and administered (i.p.) daily: saline, 100 μg/kg NBD-MCoTI-II and 3 mg/kg dexamethasone for 14 days. AI scores, body weights, paw thickness and any signs of distress were monitored daily. […] The marked inhibition of arthritic disease progression by NBD-MCoTI-II persisted for the study duration. […] The effect lasted the study duration.
To further assess the efficacy of linear NBD-MCoTI-II we performed histopathology analysis of the studies on the joints of CIA mice treated with saline and NBD-MCoTI-II (100 μg/kg).
To compare the efficacy of NBD-MCoTI-II to existing anti-arthritic drugs we calculated a composite histopathology score for the CIA mice from the individual scores of inflammation, pannus, cartilage damage and bone resorption by adding them. Shown in FIG. 9 is a comparison of the composite histopathology scores for NBD-MCoTI-II (100 μg/kg) to published values for the existing anti-arthritic drugs Enbrel™ (15 mg/kg), Orencia™ (5 mg/kg), Xeljanz™ (10 mg/kg) and INCB028050 (15/mg). Data are presented as a percent of the composite histopathology scores for CIA mice treated with saline. […] J Immunol 184:5298-307, the contents of each of which are herein incorporated by reference in their entireties). […] Thus, linear NBD-MCoTI-II prevented joint damage while the other anti-arthritic drugs were only capable of reducing joint damage.
Splenomegaly is associated with arthritis and has been observed in the mouse CIA model [(see, e.g., Foell J L et al., (2004) Engagement of the CD137 (4-1BB) costimulatory molecule inhibits and reverses the autoimmune process in collagen-induced arthritis and establishes lasting disease resistance. Immunology 113:89-98; and Liu Y et al., (2011) Therapeutic effects of TACI-Ig on collagen-induced arthritis by regulating T and B lymphocytes function in DBA/1 mice. Eur J Pharmacol 654:304-14); the contents of each of which are herein incorporated by reference in their entirities)].
Mouse body weights were unchanged relative to saline controls.

Data set [5] concerns the target NEMO (nuclear factor kB essential modulator) (UniProt Q9Y6K9). Put plainly: cell-based or functional assay.
For data set [6], the target named is NEMO (nuclear factor kB essential modulator) (UniProt Q9Y6K9 1-419). As to the kind of experiment: cell-based or functional assay.

Ends that are not written are not given here.

Sequence of NEMO (nuclear factor kB essential modulator) (UniProt Q9Y6K9) (Q9Y6K9 whole entry): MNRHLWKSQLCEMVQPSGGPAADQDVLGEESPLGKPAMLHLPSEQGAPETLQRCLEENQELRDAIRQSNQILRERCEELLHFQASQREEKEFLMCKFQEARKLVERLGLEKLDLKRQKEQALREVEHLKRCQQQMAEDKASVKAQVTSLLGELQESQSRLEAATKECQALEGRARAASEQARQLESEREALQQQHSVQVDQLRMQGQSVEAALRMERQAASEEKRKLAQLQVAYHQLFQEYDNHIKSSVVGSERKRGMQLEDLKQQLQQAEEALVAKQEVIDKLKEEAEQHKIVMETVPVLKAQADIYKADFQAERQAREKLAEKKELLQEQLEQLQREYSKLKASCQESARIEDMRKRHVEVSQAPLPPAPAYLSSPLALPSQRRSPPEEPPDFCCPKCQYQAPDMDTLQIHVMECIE
Sequence of NEMO (nuclear factor kB essential modulator) (UniProt Q9Y6K9 1-419) (Q9Y6K9 whole entry): as above

As to “FTALDWSWLQTCPKILKKCRRDSDCPGACICRGNGYC [linear NBD-MCoTI-II]”, the “potency relative to NBD peptide, inhibition of NF-κB signaling” value in data set [1] (cell-based assay, versus NBD Peptide) was 10^6 fold. In data set [1], the “block of TNFα-mediated SEAP expression (in words)” value (“block … (in words)” below) is recorded as “blocked”. In addition, the overt cellular toxicity entry in data set [2] is recorded as “no overt cellular toxicity”. For the same molecule, the “in vivo potency relative to NBD Peptide” value in data set [3] (5 μg/kg NBD-MCoTI-II similar to NBD Peptide 25 mg/kg (di Meglio 2005)) is on record as 5000 fold. Further, the reduction of swelling in data set [3] (5 μg/kg i.p.) was found to be 30%; in data set [3] (25 μg/kg i.p.), 50%. Also, in data set [3] (5 and 25 μg/kg i.p., 4, 6 and 12 hours post-carrageenan), the “swelling (in words)” value is reported as “significantly reduced swelling”. Further, in data set [4] (100 μg/kg), the “joint histopathology scores (inflammation, pannus, cartilage damage, bone resorption)” value is “at or near zero”. Also, in data set [4] (100 μg/kg i.p. daily, by Day 29, p<0.01, persisted for the study duration), the “progression of arthritis (arthritic index score)” value is “halted the progression of arthritis”. In data set [4] (100 μg/kg i.p. daily, p<0.01, lasted the study duration), the “increase in paw thickness” value is listed as “blocked the increase in paw thickness”. In addition, the composite histopathology score entry in data set [4] (100 μg/kg, percent of saline-treated CIA mice) is reported as “almost zero”. In addition, the “kidney, liver and intestine weights” value in data set [4] (CIA mice) was “within normal ranges”. Besides, the “laboratory blood analysis (blood chemistry, kidney function tests, ALT, AST, blood cell counts)” value in data set [4] (CIA mice) is listed as “within normal ranges”. The “signs of toxicity or distress” value in data set [4] (CIA mice, 100 μg/kg i.p. daily for 14 days) is recorded as “no obvious signs of toxicity or distress”. The molecule also had a spleen weight in data set [4] (CIA mice, saline 135±27 mg, p<0.01) of 100 ± 17 mg. Besides, the “efficacy relative to CP690550 (Xeljanz) and anti-TNF Ab control in ameliorating arthritic symptoms” value in data set [4] (comparison with Milici 2008) was “at least as effective”. Moreover, in data set [4] (relative to saline controls), the mouse body weights entry is listed as “unchanged”.

Turning to “WT MCoTI-II: wild-type MCoTI-II (SEQ ID NO:3), cystine-knot microprotein, trypsin inhibitor subfamily (MCGSGSDGGVCPKILKKCRRDSDCPGACICRGNGY; disulfide (positions not given here); not fully specified; listed as Homo sapiens) [reference compound]”, the “block … (in words)” value in data set [1] was “not”. For the same molecule, the overt cellular toxicity result in data set [2] was “no overt cellular toxicity”.

Take “circularized NBD-MCoTI-II: circular, native-folded NBD-MCoTI-II generated in bacteria; sequence after processing SEQ ID NO:10 (cyclo(FTALDWSWLQTCPKILKKCRRDSDCPGACICRGNGYC); ends not checked; also: native-folded, disulfide pairing not given here)”: the “block … (in words)” value in data set [1] was “blocked”.

In data set [5], FTALDWSWLQT (peptide, part only; not given: cell penetrating peptide, part only, not fully specified) [NBD Peptide] returned an IC50 for blocking TNFα-mediated SEAP expression (NF-κB reporter, pNiFty-SEAP transfected HEK293 cells) of 60 µM.

B1: linear NBD-MCoTI-II generated by automated synthesis (designed binder)
chain: FTALDWSWLQTCPKILKKCRRDSDCPGACICRGNGYC
modifications: ends and bridges not checked; also: folded in glutathione buffers, disulfides not placed
With B1, in data set [6], the “IC50 for blocking TNFα-mediated SEAP expression (NF-κB reporter, pNiFty-SEAP transfected HEK293 cells)” value turned out to be 60 pM.
